#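 Cells were grown in 96-well plates and exposed to each compound for 48 hours at five concentrations; endpoints were interpolated linearly between bracketing concentrations, or set to the highest concentration if not reached. GI50 marks 50% less growth.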 Active and inactive are the calls of the source. Cut-off read from the data, not from the text of the source: active = GI50 up to about 1.1 µM and inactive = higher.
# How the values were obtained:
# Assay in all cases: growth of human tumour cells (NCI), 48 h
# NCI-H23 = test system: NCI-H23
# HCC 2998 = test system: HCC 2998
# HCT-116 = test system: HCT-116
# A549 = test system: A549
# NCI-H226 = test system: NCI-H226
# SF-539 = test system: SF-539
# T47D = test system: T47D
# UACC-257 = test system: UACC-257
# SN12C = test system: SN12C
# A498 = test system: A498
# SF-295 = test system: SF-295
# MDA-MB-435 = test system: MDA-MB-435
# SK-MEL-28 = test system: SK-MEL-28
# HOP-92 = test system: HOP-92
# UO-31 = test system: UO-31
# OVCAR-4 = test system: OVCAR-4
# 786-0 = test system: 786-0
# KM12 = test system: KM12
# COLO 205 = test system: COLO 205
# MDA-MB-231 = test system: MDA-MB-231
# HCT-15 = test system: HCT-15
# ACHN = test system: ACHN
# OVCAR-5 = test system: OVCAR-5
# SK-MEL-2 = test system: SK-MEL-2
# UACC-62 = test system: UACC-62
# M14 = test system: M14
# OVCAR-8 = test system: OVCAR-8
# NCI-H460 = test system: NCI-H460
# SR = test system: SR
# CCRF-CEM = test system: CCRF-CEM
# BT-549 = test system: BT-549
# MOLT-4 = test system: MOLT-4
# PC-3 = test system: PC-3
# RXF 393 = test system: RXF 393
# SNB-75 = test system: SNB-75
# RPMI-8226 = test system: RPMI-8226
# LOX IMVI = test system: LOX IMVI
# HOP-62 = test system: HOP-62
# K562 = test system: K562
# MCF7 = test system: MCF7
# U-251 = test system: U-251
# EKVX = test system: EKVX
# SK-MEL-5 = test system: SK-MEL-5
# OVCAR-3 = test system: OVCAR-3
# NCI/ADR-RES = test system: NCI/ADR-RES
# CAKI-1 = test system: CAKI-1
# SW-620 = test system: SW-620
# SNB-19 = test system: SNB-19
# IGROV-1 = test system: IGROV-1
# MDA-N = test system: MDA-N
# DU-145 = test system: DU-145
smiles,measurement,setting,value
CSC12c3cc(C)n(-c4ccc([N+](=O)[O-])cc4)c3CC(C)(C)CN1C(=O)C2Oc1ccccc1 (stereo unspecified),GI50,NCI-H23,74.1 µM (inactive)
same,GI50,HCC 2998,35.5 µM (inactive)
same,GI50,HCT-116,54.2 µM (inactive)
same,GI50,A549,46.1 µM (inactive)
same,GI50,NCI-H226,> 100 µM (inactive)
same,GI50,SF-539,> 100 µM (inactive)
same,GI50,T47D,32.7 µM (inactive)
same,GI50,UACC-257,70 µM (inactive)
same,GI50,SN12C,> 100 µM (inactive)
same,GI50,A498,10.6 µM (inactive)
same,GI50,SF-295,> 100 µM (inactive)
same,GI50,MDA-MB-435,19.8 µM (inactive)
same,GI50,SK-MEL-28,> 100 µM (inactive)
same,GI50,HOP-92,24.2 µM (inactive)
same,GI50,UO-31,> 100 µM (inactive)
same,GI50,OVCAR-4,4.72 µM (inactive)
same,GI50,786-0,> 100 µM (inactive)
same,GI50,KM12,1.73 µM (inactive)
same,GI50,COLO 205,> 100 µM (inactive)
same,GI50,MDA-MB-231,96.6 µM (inactive)
same,GI50,HCT-15,> 100 µM
same,GI50,ACHN,> 100 µM (inactive)
same,GI50,OVCAR-5,> 100 µM (inactive)
same,GI50,SK-MEL-2,> 100 µM (inactive)
same,GI50,UACC-62,22.2 µM (inactive)
same,GI50,M14,> 100 µM (inactive)
same,GI50,OVCAR-8,> 100 µM (inactive)
same,GI50,NCI-H460,71.9 µM (inactive)
same,GI50,SR,> 100 µM (inactive)
same,GI50,CCRF-CEM,> 100 µM (inactive)
same,GI50,BT-549,> 100 µM (inactive)
same,GI50,MOLT-4,> 100 µM (inactive)
same,GI50,PC-3,> 100 µM (inactive)
same,GI50,RXF 393,> 100 µM (inactive)
same,GI50,SNB-75,10.6 µM (inactive)
same,GI50,RPMI-8226,31.9 µM (inactive)
same,GI50,LOX IMVI,> 100 µM (inactive)
same,GI50,HOP-62,> 100 µM (inactive)
same,GI50,K562,> 100 µM (inactive)
same,GI50,MCF7,28.6 µM (inactive)
same,GI50,U-251,> 100 µM (inactive)
same,GI50,EKVX,36 µM (inactive)
same,GI50,SK-MEL-5,> 100 µM (inactive)
same,GI50,OVCAR-3,> 100 µM (inactive)
same,GI50,NCI/ADR-RES,> 100 µM (inactive)
same,GI50,CAKI-1,18.5 µM (inactive)
same,GI50,SW-620,> 100 µM (inactive)
same,GI50,SNB-19,80.9 µM (inactive)
same,GI50,IGROV-1,> 100 µM (inactive)
same,GI50,MDA-N,> 100 µM (inactive)
same,GI50,DU-145,> 100 µM (inactive)

# From ChEMBL document CHEMBL1201862, “PubChem BioAssay data set” (2004)
